Measurements: PubChem BioAssay (NCI)
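Here, GI50 denotes the concentration required for 50% inhibition of growth. TGI: concentration producing complete growth inhibition.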

Legend:
Assay in all cases: NCI-60 cell line screen, 384-well format
A549 NSCLC = tested on: A549 NSCLC
NCI-H322M lung = tested on: NCI-H322M lung
T-47D breast = tested on: T-47D breast
OVCAR-3 ovarian = tested on: OVCAR-3 ovarian
SK-MEL-28 melanoma = tested on: SK-MEL-28 melanoma
SK-MEL-5 melanoma = tested on: SK-MEL-5 melanoma
HCT-15 colon = tested on: HCT-15 colon
OVCAR-4 ovarian = tested on: OVCAR-4 ovarian
OVCAR-8 ovarian = tested on: OVCAR-8 ovarian
RXF 393 renal = tested on: RXF 393 renal
TK-10 renal = tested on: TK-10 renal
UACC-62 melanoma = tested on: UACC-62 melanoma
SR leukemia = tested on: SR leukemia
DU-145 prostate = tested on: DU-145 prostate
NCI/ADR-RES ovarian = tested on: NCI/ADR-RES ovarian
SF-295 CNS = tested on: SF-295 CNS
COLO 205 colon = tested on: COLO 205 colon
CAKI-1 renal = tested on: CAKI-1 renal
SF-268 CNS = tested on: SF-268 CNS
UACC-257 melanoma = tested on: UACC-257 melanoma
NCI-H226 lung = tested on: NCI-H226 lung
KM12 colon = tested on: KM12 colon
K-562 leukemia = tested on: K-562 leukemia
HCC-2998 colon = tested on: HCC-2998 colon
MDA-MB-435 melanoma = tested on: MDA-MB-435 melanoma
HOP-62 NSCLC = tested on: HOP-62 NSCLC
BT-549 breast = tested on: BT-549 breast
CCRF-CEM leukemia = tested on: CCRF-CEM leukemia
NCI-H460 NSCLC = tested on: NCI-H460 NSCLC
A498 renal = tested on: A498 renal
HOP-92 NSCLC = tested on: HOP-92 NSCLC
U251 glioblastoma = tested on: U251 glioblastoma
NCI-H522 lung = tested on: NCI-H522 lung
SN12C renal = tested on: SN12C renal
ACHN renal = tested on: ACHN renal
786-0 renal = tested on: 786-0 renal
LOX IMVI melanoma = tested on: LOX IMVI melanoma
MALME-3M melanoma = tested on: MALME-3M melanoma
HL-60(TB) leukemia = tested on: HL-60(TB) leukemia
M14 melanoma = tested on: M14 melanoma
PC-3 prostate = tested on: PC-3 prostate
HT29 colon = tested on: HT29 colon
HS 578T breast = tested on: HS 578T breast
MOLT-4 leukemia = tested on: MOLT-4 leukemia
SK-OV-3 ovarian = tested on: SK-OV-3 ovarian
SF-539 CNS = tested on: SF-539 CNS
UO-31 renal = tested on: UO-31 renal
OVCAR-5 ovarian = tested on: OVCAR-5 ovarian
MCF7 breast = tested on: MCF7 breast
SNB-19 CNS = tested on: SNB-19 CNS
IGROV1 ovarian = tested on: IGROV1 ovarian
SNB-75 CNS = tested on: SNB-75 CNS
NCI-H23 lung = tested on: NCI-H23 lung
MDA-MB-468 breast = tested on: MDA-MB-468 breast
RPMI-8226 leukemia = tested on: RPMI-8226 leukemia
MDA-MB-231 breast = tested on: MDA-MB-231 breast
EKVX NSCLC = tested on: EKVX NSCLC
SW-620 colon = tested on: SW-620 colon

Compound: COc1cc(CCc2cc(NC(=O)c3ccc(N4C[C@@H](C)N[C@@H](C)C4)cc3)n[nH]2)cc(OC)c1
- GI50 (A549 NSCLC): 4.71 µM
- TGI (A549 NSCLC): 15.7 µM
- GI50 (NCI-H322M lung): 5.5 µM
- TGI (NCI-H322M lung): 17.4 µM
- GI50 (T-47D breast): 11.1 µM
- TGI (T-47D breast): 23.2 µM
- GI50 (OVCAR-3 ovarian): 11.9 µM
- TGI (OVCAR-3 ovarian): 24.3 µM
- GI50 (SK-MEL-28 melanoma): 2.33 µM
- TGI (SK-MEL-28 melanoma): 5.37 µM
- GI50 (SK-MEL-5 melanoma): 1.59 µM
- TGI (SK-MEL-5 melanoma): 2.95 µM
- GI50 (HCT-15 colon): 3.39 µM
- TGI (HCT-15 colon): 11.2 µM
- GI50 (OVCAR-4 ovarian): 6.69 µM
- TGI (OVCAR-4 ovarian): 19.7 µM
- GI50 (OVCAR-8 ovarian): 9.65 µM
- TGI (OVCAR-8 ovarian): 21.5 µM
- GI50 (RXF 393 renal): 2.13 µM
- TGI (RXF 393 renal): 5.28 µM
- GI50 (TK-10 renal): 11.8 µM
- TGI (TK-10 renal): 24.2 µM
- GI50 (UACC-62 melanoma): 3.07 µM
- TGI (UACC-62 melanoma): 10.7 µM
- GI50 (SR leukemia): 1.8 µM
- TGI (SR leukemia): 3.21 µM
- GI50 (DU-145 prostate): 5.91 µM
- TGI (DU-145 prostate): 18 µM
- GI50 (NCI/ADR-RES ovarian): 17.5 µM
- TGI (NCI/ADR-RES ovarian): 31.5 µM
- GI50 (SF-295 CNS): 4.91 µM
- TGI (SF-295 CNS): 15.5 µM
- GI50 (COLO 205 colon): 2.31 µM
- TGI (COLO 205 colon): 5.36 µM
- GI50 (CAKI-1 renal): 3.65 µM
- TGI (CAKI-1 renal): 14 µM
- GI50 (SF-268 CNS): 5.42 µM
- TGI (SF-268 CNS): 18.2 µM
- GI50 (UACC-257 melanoma): 1.53 µM
- TGI (UACC-257 melanoma): 2.9 µM
- GI50 (NCI-H226 lung): 1.49 µM
- TGI (NCI-H226 lung): 10.9 µM
- GI50 (KM12 colon): 0.0516 µM
- TGI (KM12 colon): 1.46 µM
- GI50 (K-562 leukemia): 2.5 µM
- TGI (K-562 leukemia): 4.83 µM
- GI50 (HCC-2998 colon): 3.82 µM
- TGI (HCC-2998 colon): 12.8 µM
- GI50 (MDA-MB-435 melanoma): 3.26 µM
- TGI (MDA-MB-435 melanoma): 10.8 µM
- GI50 (HOP-62 NSCLC): 5.65 µM
- TGI (HOP-62 NSCLC): 17.3 µM
- GI50 (BT-549 breast): 1.95 µM
- TGI (BT-549 breast): 8.13 µM
- GI50 (CCRF-CEM leukemia): 2.33 µM
- TGI (CCRF-CEM leukemia): 4.13 µM
- GI50 (NCI-H460 NSCLC): 3.39 µM
- TGI (NCI-H460 NSCLC): 10.9 µM
- GI50 (A498 renal): 3.66 µM
- TGI (A498 renal): 13.7 µM
- GI50 (HOP-92 NSCLC): 3.61 µM
- TGI (HOP-92 NSCLC): 15 µM
- GI50 (U251 glioblastoma): 6.52 µM
- TGI (U251 glioblastoma): 19 µM
- GI50 (NCI-H522 lung): 5.63 µM
- TGI (NCI-H522 lung): 17.9 µM
- GI50 (SN12C renal): 2.54 µM
- TGI (SN12C renal): 10.1 µM
- GI50 (ACHN renal): 4.46 µM
- TGI (ACHN renal): 15.9 µM
- GI50 ([…]-0 renal): 3.07 µM
- TGI (786-0 renal): 9.35 µM
- GI50 (LOX IMVI melanoma): 1.9 µM
- TGI (LOX IMVI melanoma): 3.58 µM
- GI50 (MALME-3M melanoma): 2.03 µM
- TGI (MALME-3M melanoma): 4.37 µM
- GI50 (HL-60(TB) leukemia): 1.83 µM
- TGI (HL-60(TB) leukemia): 3.28 µM
- GI50 (M14 melanoma): 1.71 µM
- TGI (M14 melanoma): 3.35 µM
- GI50 (PC-3 prostate): 4.91 µM
- TGI (PC-3 prostate): 16.1 µM
- GI50 (HT29 colon): 1.85 µM
- TGI (HT29 colon): 3.72 µM
- GI50 (HS 578T breast): 2.19 µM
- TGI (HS 578T breast): 4.58 µM
- GI50 (MOLT-4 leukemia): 1.86 µM
- TGI (MOLT-4 leukemia): 3.36 µM
- GI50 (SK-OV-3 ovarian): 2.99 µM
- TGI (SK-OV-3 ovarian): 11 µM
- GI50 (SF-539 CNS): 1.69 µM
- TGI (SF-539 CNS): 4.18 µM
- GI50 (UO-31 renal): 11.1 µM
- TGI (UO-31 renal): 23.9 µM
- GI50 (OVCAR-5 ovarian): 3.22 µM
- TGI (OVCAR-5 ovarian): 9.57 µM
- GI50 (MCF7 breast): 3.06 µM
- TGI (MCF7 breast): 10.9 µM
- GI50 (SNB-19 CNS): 15.3 µM
- TGI (SNB-19 CNS): 28.8 µM
- GI50 (IGROV1 ovarian): 3.8 µM
- TGI (IGROV1 ovarian): 14 µM
- GI50 (SNB-75 CNS): 4.55 µM
- TGI (SNB-75 CNS): 17.1 µM
- GI50 (NCI-H23 lung): 2.42 µM
- TGI (NCI-H23 lung): 6.77 µM
- GI50 (MDA-MB-468 breast): 3.46 µM
- TGI (MDA-MB-468 breast): 6.61 µM
- GI50 (RPMI-8226 leukemia): 2.26 µM
- TGI (RPMI-8226 leukemia): 4.41 µM
- GI50 (MDA-MB-231 breast): 5.81 µM
- TGI (MDA-MB-231 breast): 18.3 µM
- GI50 (EKVX NSCLC): 10.4 µM
- TGI (EKVX NSCLC): 22.2 µM
- GI50 (SW-620 colon): 4.21 µM
- TGI (SW-620 colon): 15.3 µM
